Experimental data as given in ChEMBL document CHEMBL1782000, “Thiazole-based chalcones as potent antimicrobial agents. Synthesis and biological evaluation” (2011).
≈ marks a conversion by molar mass, not a printed value.

Experiments:
[1] = system: Salmonella typhimurium; experiment: Bactericidal activity against Salmonella Typhimurium ATCC 13311 after 24 hrs; type: functional, Salmonella enterica subsp. enterica serovar Typhimurium; details: Salmonella enterica, ATCC 13311, 24 h
[2] = system: Enterococcus faecalis; experiment: Bactericidal activity against Enterococcus faecalis isolate obtained from human after 24 hrs; type: functional
[3] = system: Aspergillus fumigatus; experiment: Fungicidal activity against Aspergillus fumigatus plant isolate after 72 hrs; type: functional
[4] = system: Trichoderma viride; experiment: Antifungal activity against Trichoderma viride IAM 5061 after 72 hrs by serial dilution method; type: functional; details: IAM 5061, 72 h
[5] = system: Fusarium sporotrichioides; experiment: Fungicidal activity against Fusarium sporotrichioides IMT 496 after 72 hrs; type: functional; details: IMT 496, 72 h
[6] = system: Listeria monocytogenes; experiment: Bactericidal activity against Listeria monocytogenes NCTC 7973 after 24 hrs; type: functional; details: NCTC 7973, 24 h
[7] = system: Aspergillus ochraceus; experiment: Fungicidal activity against Aspergillus ochraceus ATCC 12066 after 72 hrs; type: functional; details: ATCC 12066, 72 h
[8] = system: Micrococcus flavus; experiment: Antibacterial activity against Micrococcus flavus ATCC 10240 after 24 hrs by microdilution method; type: functional; details: ATCC 10240, 24 h
[9] = system: Aspergillus versicolor; experiment: Antifungal activity against Aspergillus versicolor ATCC 11730 after 72 hrs by serial dilution method; type: functional; details: ATCC 11730, 72 h
[10] = system: Staphylococcus aureus; experiment: Bactericidal activity against Staphylococcus aureus ATCC 6538 after 24 hrs; type: functional; details: ATCC 6538, 24 h
[11] = system: Escherichia coli; experiment: Bactericidal activity against Escherichia coli ATCC 35210 after 24 hrs; type: functional; details: ATCC 35210, 24 h
[12] = system: Talaromyces funiculosus; experiment: Antifungal activity against Penicillium funiculosum ATCC 36839 after 72 hrs by serial dilution method; type: functional; details: ATCC 36839, 72 h
[13] = system: Staphylococcus aureus; experiment: Antibacterial activity against Staphylococcus aureus ATCC 6538 after 24 hrs by microdilution method; type: functional; details: ATCC 6538, 24 h
[14] = system: Escherichia coli; experiment: Antibacterial activity against Escherichia coli ATCC 35210 after 24 hrs by microdilution method; type: functional; details: ATCC 35210, 24 h
[15] = system: Talaromyces funiculosus; experiment: Fungicidal activity against Penicillium funiculosum ATCC 36839 after 72 hrs; type: functional; details: ATCC 36839, 72 h
[16] = system: Aspergillus niger; experiment: Antifungal activity against Aspergillus niger ATCC 6275 after 72 hrs by serial dilution method; type: functional; details: ATCC 6275, 72 h
[17] = system: Trichoderma viride; experiment: Fungicidal activity against Trichoderma viride IAM 5061 after 72 hrs; type: functional; details: IAM 5061, 72 h
[18] = system: Micrococcus flavus; experiment: Bactericidal activity against Micrococcus flavus ATCC 10240 after 24 hrs; type: functional; details: ATCC 10240, 24 h
[19] = system: Aspergillus ochraceus; experiment: Antifungal activity against Aspergillus ochraceus ATCC 12066 after 72 hrs by serial dilution method; type: functional; details: ATCC 12066, 72 h
[20] = system: Bacillus cereus; experiment: Bactericidal activity against Bacillus cereus clinical isolate after 24 hrs; type: functional
[21] = Antifungal activity against Fusarium sporotrichioides IMT 496 after 72 hrs by serial dilution method; type: functional
[22] = system: Aspergillus niger; experiment: Fungicidal activity against Aspergillus niger ATCC 6275 after 72 hrs; type: functional; details: ATCC 6275, 72 h
[23] = system: Bacillus cereus; experiment: Antibacterial activity against Bacillus cereus clinical isolate after 24 hrs by microdilution method; type: functional
[24] = system: Salmonella typhimurium; experiment: Antibacterial activity against Salmonella Typhimurium ATCC 13311 after 24 hrs by microdilution method; type: functional, Salmonella enterica subsp. enterica serovar Typhimurium; details: Salmonella enterica, ATCC 13311, 24 h
[25] = system: Enterococcus faecalis; experiment: Antibacterial activity against Enterococcus faecalis isolate obtained from human after 24 hrs by microdilution method; type: functional
[26] = system: Listeria monocytogenes; experiment: Antibacterial activity against Listeria monocytogenes NCTC 7973 after 24 hrs by microdilution method; type: functional; details: NCTC 7973, 24 h
[27] = system: Penicillium ochrochloron; experiment: Antifungal activity against Penicillium ochrochloron ATCC 9112 after 72 hrs by serial dilution method; type: functional; details: ATCC 9112, 72 h
[28] = system: Pseudomonas aeruginosa; experiment: Bactericidal activity against Pseudomonas aeruginosa ATCC 27853 after 24 hrs; type: functional; details: ATCC 27853, 24 h
[29] = system: Aspergillus fumigatus; experiment: Antifungal activity against Aspergillus fumigatus plant isolate after 72 hrs by serial dilution method; type: functional
[30] = system: Penicillium ochrochloron; experiment: Fungicidal activity against Penicillium ochrochloron ATCC 9112 after 72 hrs; type: functional; details: ATCC 9112, 72 h
[31] = system: Micrococcus flavus; experiment: Ratio of Ampicillin MIC to compound MIC for Micrococcus flavus ATCC 10240 after 24 hrs; type: functional
[32] = system: Pseudomonas aeruginosa; experiment: Antibacterial activity against Pseudomonas aeruginosa ATCC 27853 after 24 hrs by microdilution method; type: functional; details: ATCC 27853, 24 h
[33] = system: Aspergillus versicolor; experiment: Fungicidal activity against Aspergillus versicolor ATCC 11730 after 72 hrs; type: functional; details: ATCC 11730, 72 h

## CNc1nc(C)c(C(=O)/C=C/c2ccc(OC)cc2)s1
[1]
  MBC: 513 µM (≈ 148 µg/mL)
[2]
  MBC: 171 µM (≈ 49.3 µg/mL)
[3]
  MFC: 513 µM (≈ 148 µg/mL)
[4]
  MIC: 170 µM (≈ 49 µg/mL)
[5]
  MFC: 513 µM (≈ 148 µg/mL)
[6]
  MBC: 513 µM (≈ 148 µg/mL)
[7]
  MFC: 513 µM (≈ 148 µg/mL)
[8]
  MIC: 85.4 µM (≈ 24.6 µg/mL)
[9]
  MIC: 170 µM (≈ 49 µg/mL)
[10]
  MBC: 342 µM (≈ 98.6 µg/mL)
[11]
  MBC: 513 µM (≈ 148 µg/mL)
[12]
  MIC: 340 µM (≈ 98 µg/mL)
[13]
  MIC: 290 µM (≈ 83.8 µg/mL)
[14]
  MIC: 342 µM (≈ 98.6 µg/mL)
[15]
  MFC: 513 µM (≈ 148 µg/mL)
[16]
  MIC: 340 µM (≈ 98 µg/mL)
[17]
  MFC: 513 µM (≈ 148 µg/mL)
[18]
  MBC: 171 µM (≈ 49.3 µg/mL)
[19]
  MIC: 340 µM (≈ 98 µg/mL)
[20]
  MBC: 342 µM (≈ 98.6 µg/mL)
[21]
  MIC (10'-2 umol/ml): 34
[22]
  MFC: 683 µM (≈ 197 µg/mL)
[23]
  MIC: 290 µM (≈ 83.8 µg/mL)
[24]
  MIC: 342 µM (≈ 98.6 µg/mL)
[25]
  MIC: 171 µM (≈ 49.3 µg/mL)
[26]
  MIC: 342 µM (≈ 98.6 µg/mL)
[27]
  MIC: 340 µM (≈ 98 µg/mL)
[28]
  MBC: 513 µM (≈ 148 µg/mL)
[29]
  MIC: 170 µM (≈ 49 µg/mL)
[30]
  MFC: 513 µM (≈ 148 µg/mL)
[31]
  Ratio: 3
[32]
  MIC: 342 µM (≈ 98.6 µg/mL)
[33]
  MFC: 513 µM (≈ 148 µg/mL)

## CNc1nc(C)c(C(=O)/C=C/c2cccc(Cl)c2)s1
[1]
  MBC: 342 µM (≈ 100 µg/mL)
[2]
  MBC: 342 µM (≈ 100 µg/mL)
[3]
  MFC: 513 µM (≈ 150 µg/mL)
[4]
  MIC: 170 µM (≈ 49.8 µg/mL)
[5]
  MFC: 683 µM (≈ 200 µg/mL)
[6]
  MBC: 513 µM (≈ 150 µg/mL)
[7]
  MFC: 513 µM (≈ 150 µg/mL)
[8]
  MIC: 256 µM (≈ 75.1 µg/mL)
[9]
  MIC: 340 µM (≈ 99.5 µg/mL)
[10]
  MBC: 513 µM (≈ 150 µg/mL)
[11]
  MBC: 342 µM (≈ 100 µg/mL)
[12]
  MIC: 340 µM (≈ 99.5 µg/mL)
[13]
  MIC: 342 µM (≈ 100 µg/mL)
[14]
  MIC: 290 µM (≈ 85.1 µg/mL)
[15]
  MFC: 513 µM (≈ 150 µg/mL)
[16]
  MIC: 340 µM (≈ 99.5 µg/mL)
[17]
  MFC: 340 µM (≈ 99.5 µg/mL)
[18]
  MBC: 342 µM (≈ 100 µg/mL)
[19]
  MIC: 340 µM (≈ 99.5 µg/mL)
[20]
  MBC: 513 µM (≈ 150 µg/mL)
[21]
  MIC (10'-2 umol/ml): 17
[22]
  MFC: 854 µM (≈ 250 µg/mL)
[23]
  MIC: 342 µM (≈ 100 µg/mL)
[24]
  MIC: 290 µM (≈ 85.1 µg/mL)
[25]
  MIC: 85.4 µM (≈ 25 µg/mL)
[26]
  MIC: 342 µM (≈ 100 µg/mL)
[27]
  MIC: 340 µM (≈ 99.5 µg/mL)
[28]
  MBC: 513 µM (≈ 150 µg/mL)
[29]
  MIC: 340 µM (≈ 99.5 µg/mL)
[30]
  MFC: 513 µM (≈ 150 µg/mL)
[32]
  MIC: 342 µM (≈ 100 µg/mL)
[33]
  MFC: 513 µM (≈ 150 µg/mL)
